Data reported in patent US10597388B2, “Pyridazinone herbicides” (FMC CORPORATION, priority 2014, dated 2020).

How the values were obtained:
Assay in all cases: Test D controlled growth environment herbicide test, pre- and postemergence
Type in all cases: in vivo
[1] = tested on: Russian thistle (Salsola kali)
Procedure, shortened: (§1)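 Species sown in silt loam and sprayed preemergence, or grown in peat-based medium to 2–18 cm (1- to 4-leaf stage) and sprayed postemergence, with compounds in non-phytotoxic solvent plus surfactant. Visual injury scored versus controls after 14–21 d in a controlled environment, 0 (no effect) to 100 (complete control).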

[2] = tested on: bluegrass (annual bluegrass, Poa annua)
Procedure, shortened: as §1

[3] = tested on: bromegrass, downy (downy bromegrass, Bromus tectorum)
Procedure, shortened: as §1

[4] = tested on: buckwheat, wild (wild buckwheat, Polygonum convolvulus)
Procedure, shortened: as §1

[5] = tested on: canarygrass (Phalaris minor)
Procedure, shortened: as §1

[6] = tested on: chamomile (scentless chamomile, Matricaria inodora)
Procedure, shortened: as §1

[7] = tested on: field poppy (Papaver rhoeas)
Procedure, shortened: as §1

[8] = tested on: field violet (Viola arvensis)
Procedure, shortened: as §1

[9] = tested on: mustard, wild (wild mustard, Sinapis arvensis)
Procedure, shortened: as §1

[10] = tested on: oat, wild (wild oat, Avena fatua)
Procedure, shortened: as §1

[11] = tested on: oilseed rape (Brassica napus)
Procedure, shortened: as §1

[12] = tested on: radish, wild (wild radish, Raphanus raphanistrum)
Procedure, shortened: as §1

[13] = tested on: wheat, spring (spring wheat, Triticum aestivum)
Procedure, shortened: as §1

[14] = Postemergence, 31 g ai/ha, scale 0 to 100 (0 no effect, 100 complete control)
[15] = Postemergence, 125 g ai/ha, visual rating on scale 0 (no effect) to 100 (complete control), 14 to 21 d
[16] = Postemergence, 250 g ai/ha, scale 0 to 100 (0 no effect, 100 complete control)
[17] = Preemergence, 62 g ai/ha, scale 0 to 100 (0 no effect, 100 complete control)
[18] = Preemergence, 125 g ai/ha, scale 0 to 100 (0 no effect, 100 complete control)
[19] = Preemergence, 250 g ai/ha, scale 0 to 100 (0 no effect, 100 complete control)
[20] = postemergence, 62 g ai/ha, scale 0 to 100, 0 no effect, 100 complete control

CC(=O)Oc1c(C)nn(C)c(=O)c1-c1c(C)sc2ccc(C)cc12 [Compound 25]
Russian Thistle plant response rating [1, 14]: 70
Plant response rating, Russian Thistle [1, 15]: 80
Plant response rating, Russian Thistle [1, 16]: 90
Plant response rating (scale of 0 to 100), Russian Thistle ([1]; Preemergence, 31 g ai/ha): 10
Plant response rating, Russian Thistle [1, 17]: 25
Plant response rating, Russian Thistle [1, 18]: 40
Plant response rating, Russian Thistle [1, 19]: 90
Plant response rating, Russian Thistle [1, 20]: 75
Bluegrass plant response rating [2, 14]: 10
Plant response rating, Bluegrass [2, 15]: 30
Plant response rating, Bluegrass [2, 16]: 40
Plant response rating (scale of 0 to 100), Bluegrass ([2]; Preemergence, 31 g ai/ha): 25
Plant response rating, Bluegrass [2, 17]: 35
Plant response rating, Bluegrass [2, 18]: 40
Bluegrass plant response rating [2, 19]: 75
Plant response rating, Bluegrass [2, 20]: 20
Bromegrass, Downy plant response rating [3, 14]: 5
Plant response rating, Bromegrass, Downy [3, 15]: 50
Plant response rating, Bromegrass, Downy [3, 16]: 65
Plant response rating (scale of 0 to 100), Bromegrass, Downy ([3]; Preemergence, 31 g ai/ha): 40
Plant response rating, Bromegrass, Downy [3, 17]: 65
Plant response rating, Bromegrass, Downy [3, 18]: 80
Plant response rating, Bromegrass, Downy [3, 19]: 85
Plant response rating, Bromegrass, Downy [3, 20]: 25
Buckwheat, Wild plant response rating [4, 14]: 80
Plant response rating, Buckwheat, Wild [4, 15]: 100
Plant response rating, Buckwheat, Wild [4, 16]: 100
Plant response rating (scale of 0 to 100), Buckwheat, Wild ([4]; Preemergence, 31 g ai/ha): 0
Plant response rating, Buckwheat, Wild [4, 17]: 0
Plant response rating, Buckwheat, Wild [4, 18]: 20
Plant response rating, Buckwheat, Wild [4, 19]: 25
Plant response rating, Buckwheat, Wild [4, 20]: 100
Canarygrass plant response rating [5, 14]: 70
Plant response rating, Canarygrass [5, 15]: 80
Plant response rating, Canarygrass [5, 16]: 85
Plant response rating (scale of 0 to 100), Canarygrass ([5]; Preemergence, 31 g ai/ha): 80
Plant response rating, Canarygrass [5, 17]: 80
Plant response rating, Canarygrass [5, 18]: 95
Plant response rating, Canarygrass [5, 19]: 100
Plant response rating, Canarygrass [5, 20]: 80
Chamomile plant response rating [6, 14]: 75
Plant response rating, Chamomile [6, 15]: 100
Plant response rating, Chamomile [6, 16]: 100
Plant response rating (scale of 0 to 100), Chamomile ([6]; Preemergence, 31 g ai/ha): 100
Plant response rating, Chamomile [6, 17]: 100
Plant response rating, Chamomile [6, 18]: 100
Plant response rating, Chamomile [6, 19]: 95
Plant response rating, Chamomile [6, 20]: 95
Field Poppy plant response rating [7, 14]: 70
Plant response rating, Field Poppy [7, 15]: 100
Plant response rating, Field Poppy [7, 16]: 100
Plant response rating (scale of 0 to 100), Field Poppy ([7]; Preemergence, 31 g ai/ha): 95
Plant response rating, Field Poppy [7, 17]: 100
Plant response rating, Field Poppy [7, 18]: 100
Plant response rating, Field Poppy [7, 19]: 100
Plant response rating, Field Poppy [7, 20]: 80
Field Violet plant response rating [8, 14]: 65
Plant response rating, Field Violet [8, 15]: 85
Plant response rating, Field Violet [8, 16]: 95
Plant response rating (scale of 0 to 100), Field Violet ([8]; Preemergence, 31 g ai/ha): 90
Plant response rating, Field Violet [8, 17]: 100
Plant response rating, Field Violet [8, 18]: 100
Plant response rating, Field Violet [8, 19]: 100
Plant response rating, Field Violet [8, 20]: 75
Mustard, Wild plant response rating [9, 14]: 20
Plant response rating, Mustard, Wild [9, 15]: 70
Plant response rating, Mustard, Wild [9, 16]: 85
Plant response rating (scale of 0 to 100), Mustard, Wild ([9]; Preemergence, 31 g ai/ha): 0
Plant response rating, Mustard, Wild [9, 17]: 0
Plant response rating, Mustard, Wild [9, 18]: 20
Plant response rating, Mustard, Wild [9, 19]: 60
Plant response rating, Mustard, Wild [9, 20]: 40
Oat, Wild plant response rating [10, 14]: 75
Plant response rating, Oat, Wild [10, 15]: 90
Plant response rating, Oat, Wild [10, 16]: 90
Plant response rating (scale of 0 to 100), Oat, Wild ([10]; Preemergence, 31 g ai/ha): 85
Plant response rating, Oat, Wild [10, 17]: 90
Plant response rating, Oat, Wild [10, 18]: 95
Plant response rating, Oat, Wild [10, 19]: 100
Plant response rating, Oat, Wild [10, 20]: 80
Oilseed Rape plant response rating [11, 14]: 5
Plant response rating, Oilseed Rape [11, 15]: 45
Plant response rating, Oilseed Rape [11, 16]: 60
Plant response rating (scale of 0 to 100), Oilseed Rape ([11]; Preemergence, 31 g ai/ha): 0
Plant response rating, Oilseed Rape [11, 17]: 0
Plant response rating, Oilseed Rape [11, 18]: 0
Plant response rating, Oilseed Rape [11, 19]: 35
Plant response rating, Oilseed Rape [11, 20]: 30
Radish, Wild plant response rating [12, 14]: 15
Plant response rating, Radish, Wild [12, 15]: 65
Plant response rating, Radish, Wild [12, 16]: 75
Plant response rating (scale of 0 to 100), Radish, Wild ([12]; Preemergence, 31 g ai/ha): 0
Plant response rating, Radish, Wild [12, 17]: 0
Plant response rating, Radish, Wild [12, 18]: 0
Plant response rating, Radish, Wild [12, 19]: 0
Plant response rating, Radish, Wild [12, 20]: 35
Wheat, Spring plant response rating [13, 14]: 0
Plant response rating, Wheat, Spring [13, 15]: 15
Plant response rating, Wheat, Spring [13, 16]: 20
Plant response rating (scale of 0 to 100), Wheat, Spring ([13]; Preemergence, 31 g ai/ha): 0
Plant response rating, Wheat, Spring [13, 17]: 0
Plant response rating, Wheat, Spring [13, 18]: 10
Plant response rating, Wheat, Spring [13, 19]: 25
Plant response rating, Wheat, Spring [13, 20]: 0
